Experimental data taken from the NIST ThermoML archive (doi:10.1016/j.fluid.2016.01.023).
Numbers after ± are expanded uncertainties.

Test: mn = molality of the nth substance listed, in mol/kg
Details: 303.15 K, 101 kPa, Liquid, Vibrating tube method

mass density (m1 = 0.01) | mass density (m1 = 0.101) | mass density (m1 = 0.5) | mass density (m1 = 1.001) | mass density (m1 = 1.501) | mass density (m1 = 0.043) | mass density (m1 = 0.1) | mass density (m1 = 0.417) | mass density (m1 = 0.896) | mass density (m1 = 1.454) | mass density (m1 = 0.053) | mass density (m1 = 1.002) | mass density (m1 = 1.502) | Compound
996.13 ± 0.84 kg/m3 | 1007.45 ± 0.85 kg/m3 | 1042.49 ± 0.85 kg/m3 | 1093.14 ± 0.85 kg/m3 | 1147.45 ± 0.86 kg/m3 |  |  |  |  |  |  |  |  | O=C([O-])CCC(=O)C(=O)[O-].[Na+].[Na+] [disodium 2-oxo-glutarate] + O
996.19 ± 0.84 kg/m3 |  |  |  |  | 999.15 ± 0.84 kg/m3 | 1004.02 ± 0.84 kg/m3 | 1030.44 ± 0.84 kg/m3 | 1066.63 ± 0.85 kg/m3 | 1104.02 ± 0.85 kg/m3 |  |  |  | N[C@@H](CCC(=O)[O-])C(=O)O.[Na+] [sodium (S)-2-amino-4-carboxybutanoate] + O
995.66 ± 0.84 kg/m3 | 1000.51 ± 0.84 kg/m3 | 1018.19 ± 0.84 kg/m3 |  |  |  |  |  |  |  | 997.57 ± 0.84 kg/m3 | 1041.67 ± 0.84 kg/m3 | 1065.87 ± 0.84 kg/m3 | CC(=O)C(=O)[O-].[Na+] [sodium pyruvate] + O
